Some test systems named below: NCI-H522 lung; NCI/ADR-RES ovarian; RPMI-8226 leukemia; MDA-MB-435; BT-549 breast; SNB-19 CNS; OVCAR-4 ovarian; SK-OV-3 ovarian; IGROV1 ovarian; CAKI-1 renal.
Assay in all cases: inhibition of tumour cell growth, NCI panel, 48 h

Several values for one entry are separate records, joined by “and”; a condition that tells them apart may be missing. Identical values can stand only once.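 A five-concentration, 48-hour dose response in 96-well plates underlies each endpoint, interpolated linearly between surrounding concentrations. GI50: concentration for 50% inhibition of growth. TGI is the concentration that stops growth completely.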 A value given as a limit tells only on which side of the number the result lay.

Regarding `COc1c2ccccc2c(O)c2c(=O)c(C(=O)O)cn(C)c12`, the GI50 in the assay on NCI-H522 lung, in the assay with NCI/ADR-RES ovarian, with RPMI-8226 leukemia, in the assay on MDA-MB-435, in the assay with BT-549 breast and in the assay with SNB-19 CNS was > 100000 nM each time. Further, the GI50 with OVCAR-4 ovarian, in the assay with SK-OV-3 ovarian and in the assay on IGROV1 ovarian was > 100000 nM each time. Besides, the TGI in the assay with NCI-H522 lung, in the assay with NCI/ADR-RES ovarian, with RPMI-8226 leukemia, with MDA-MB-435, in the assay with BT-549 breast and in the assay on SNB-19 CNS was > 100000 nM each time. Further, the TGI with OVCAR-4 ovarian, with SK-OV-3 ovarian and in the assay on IGROV1 ovarian was > 100000 nM throughout.

Turning to `COC(=O)c1c2c(c(C)[n+]([O-])c1C)C(=O)C=C(NCc1cccc(OC)c1)C2=O`, the GI50 was 429 nM in the assay on NCI-H522 lung; 696 nM with CAKI-1 renal; 441 nM with NCI/ADR-RES ovarian; 848 nM in the assay on RPMI-8226 leukemia; 178 nM in the assay with MDA-MB-435; 1290 nM in the assay on BT-549 breast. Moreover, the GI50 was 246 nM with OVCAR-4 ovarian and 579 nM in the assay on IGROV1 ovarian. The TGI in the assay on NCI-H522 lung is 2240 nM; with CAKI-1 renal, 2220 nM; with NCI/ADR-RES ovarian it was 3150 nM; in the assay with RPMI-8226 leukemia, 4290 nM; in the assay on MDA-MB-435, 330 nM; with BT-549 breast it was 2650 nM. Besides, the TGI in the assay with OVCAR-4 ovarian is 993 nM; in the assay with IGROV1 ovarian it was 2180 nM.

As for `Cn1ccc(=Nc2ccc(NC(=O)c3ccc(N=c4ccn(C)c5ccc([N+](=O)[O-])cc45)cc3)cc2)cc1`, the GI50 in the assay with NCI-H522 lung was 6880 nM; in the assay with CAKI-1 renal, > 100000 nM; in the assay on NCI/ADR-RES ovarian it was > 100000 nM; in the assay with RPMI-8226 leukemia it was 3540 nM; in the assay with MDA-MB-435, 6530 nM; with BT-549 breast, 71500 nM. The GI50 in the assay on SNB-19 CNS was 923 nM; in the assay with SK-OV-3 ovarian, > 100000 nM; with IGROV1 ovarian, 11200 nM. The TGI with NCI-H522 lung, with CAKI-1 renal, in the assay with NCI/ADR-RES ovarian, in the assay with RPMI-8226 leukemia, in the assay on MDA-MB-435 and in the assay with BT-549 breast was > 100000 nM throughout. In addition, the TGI in the assay with SNB-19 CNS, in the assay on SK-OV-3 ovarian and in the assay on IGROV1 ovarian was > 100000 nM throughout.

With `Cc1ccc(N=C2CSc3nnc(-c4csc5c4CCCC5)n3N2)cc1`, the GI50 was 114 nM in the assay on NCI-H522 lung; 167 nM in the assay with NCI/ADR-RES ovarian; 203 nM in the assay with RPMI-8226 leukemia; 89.4 nM in the assay with MDA-MB-435; 458 nM in the assay with BT-549 breast; 222 nM in the assay with SNB-19 CNS. Also, the results for the GI50 in the assay on OVCAR-4 ovarian, in the assay with SK-OV-3 ovarian and in the assay on IGROV1 ovarian were > 50000 nM, 271 nM and 446 nM, respectively. In addition, the TGI in the assay with NCI-H522 lung is 432 nM; in the assay with NCI/ADR-RES ovarian, > 50000 nM; in the assay on RPMI-8226 leukemia, > 50000 nM; with MDA-MB-435, 237 nM; with BT-549 breast it was > 50000 nM; in the assay on SNB-19 CNS, > 50000 nM. In addition, the TGI with OVCAR-4 ovarian, in the assay with SK-OV-3 ovarian and in the assay with IGROV1 ovarian was > 50000 nM throughout.

In the case of `Cc1cc(S(=O)(=O)Nc2nc3ccsc3c(=O)n2Cc2ccco2)c(S)cc1Cl`, the GI50 in the assay with NCI-H522 lung is > 100000 nM; in the assay with CAKI-1 renal it was > 100000 nM; with NCI/ADR-RES ovarian it was > 100000 nM; with RPMI-8226 leukemia it was 59000 nM; in the assay with MDA-MB-435 it was > 100000 nM; in the assay with BT-549 breast it was > 100000 nM. Besides, the GI50 with SNB-19 CNS was 99000 nM; in the assay on OVCAR-4 ovarian it was > 100000 nM; with IGROV1 ovarian it was > 100000 nM. Besides, the TGI in the assay on NCI-H522 lung, in the assay with CAKI-1 renal, in the assay on NCI/ADR-RES ovarian, in the assay on RPMI-8226 leukemia, in the assay with MDA-MB-435 and in the assay with BT-549 breast was > 100000 nM throughout. The TGI in the assay on SNB-19 CNS, in the assay on OVCAR-4 ovarian and with IGROV1 ovarian was > 100000 nM in each case.

With `C/C=C(\C)C(=O)O[C@@H]1C(O)[C@H]2OC(COC(=O)CCC(=O)CCCCCC[C@H](CCCCC)O[C@@H]3OC(C)[C@H](OC(C)=O)C(O)[C@H]3O2)[C@H]1OC(=O)/C=C/c1ccccc1` (some centres undefined), the GI50 is 26.5 nM with NCI-H522 lung; 336 nM in the assay on NCI/ADR-RES ovarian; < 10 nM with RPMI-8226 leukemia; < 10 nM with MDA-MB-435; 19 nM in the assay with BT-549 breast; 156 nM in the assay with SNB-19 CNS. Also, the GI50 in the assay on OVCAR-4 ovarian is 1740 nM; in the assay on SK-OV-3 ovarian, 41.9 nM; with IGROV1 ovarian, < 16.3 nM. Also, the TGI with NCI-H522 lung was 2290 nM; with NCI/ADR-RES ovarian, > 100000 nM; in the assay with RPMI-8226 leukemia, 9350 nM; in the assay with MDA-MB-435, 4680 nM; with BT-549 breast, 13800 nM; with SNB-19 CNS, 15500 nM. Moreover, the TGI turned out to be 42500 nM in the assay with OVCAR-4 ovarian, 13300 nM with SK-OV-3 ovarian and 17900 nM in the assay on IGROV1 ovarian.

As to `CCC(=O)OC1CCn2c1nc1c2C(=O)C(C)=C(N2CC2)C1=O` (centres undefined), the GI50 in the assay with NCI-H522 lung is 15.9 nM; in the assay on CAKI-1 renal it was 233 nM; in the assay on SNB-19 CNS, 44.1 nM; in the assay with OVCAR-4 ovarian, 293 nM; in the assay with SK-OV-3 ovarian it was 40.7 nM; in the assay on IGROV1 ovarian, 57.3 nM. For the same compound, the TGI was 40.4 nM and 89.9 nM in the assay with NCI-H522 lung; 1010 nM and 511 nM with CAKI-1 renal; 400 nM in the assay on NCI/ADR-RES ovarian; 92.2 nM in the assay on MDA-MB-435; 192 nM with BT-549 breast; 1160 nM and 697 nM in the assay with SNB-19 CNS. Also, the TGI in the assay with OVCAR-4 ovarian is 291 nM and 667 nM; in the assay on SK-OV-3 ovarian it was 255 nM and 283 nM; with IGROV1 ovarian it was 237 nM and 1250 nM.

Take `CCCCn1c2c(c3ccccc3c1=O)C(=O)c1ccccc1-2`: the TGI in the assay with NCI-H522 lung, in the assay with CAKI-1 renal, in the assay with NCI/ADR-RES ovarian, in the assay on RPMI-8226 leukemia, with MDA-MB-435 and in the assay with BT-549 breast was > 100000 nM in each case. In addition, the values for the TGI in the assay on OVCAR-4 ovarian, in the assay on SK-OV-3 ovarian and with IGROV1 ovarian were 38400 nM, > 100000 nM and > 100000 nM, respectively.

Regarding `CO[C@H]1[C@H](O)[C@H](O[C@H]2CC[C@@]3(C)[C@H](CC[C@@H]4[C@@H]3CC[C@]3(C)[C@@H](C5=CC(=O)OC5)CC[C@]43O)C2)O[C@@H](C)[C@@H]1O`, the TGI is 0.282 nM in the assay with NCI-H522 lung; 1.56 nM with CAKI-1 renal; 1.15 nM in the assay with NCI/ADR-RES ovarian; 5.42 nM in the assay with RPMI-8226 leukemia; < 0.1 nM in the assay on MDA-MB-435; 0.665 nM in the assay with BT-549 breast. Also, the TGI in the assay with SNB-19 CNS is 3.24 nM; in the assay with OVCAR-4 ovarian, 0.626 nM; in the assay on SK-OV-3 ovarian, 2.45 nM and 10.6 nM.

The record behind these values is PubChem BioAssay (NCI).
